Assay results from ChEMBL document CHEMBL3885861, “Open TG-GATES”.

Species: Rattus norvegicus
Experiment: Open TG-GATES - Regimen: Single
Type: toxicity, organism-based, Sprague-Dawley
Set-up: regimen Single, gender Male, age 6 weeks
Details: in vivo, po, 30 mg/kg, route gavage, dose level Middle; for APTT / Bas / Eos / Fbg / Hb / Ht / Lym / MCH / MCHC / MCV / Mono / Neu / PT / Plat / RBC / Ret / WBC: tissue Blood; for KIDNEY_L / KIDNEY_R / KIDNEY_TOTAL: tissue Kidney; for LIVER: tissue Liver; for A/G / ALP / ALT / AST / BUN / CRE / Ca / Cl / DBIL / GLC / IP / K / LDH / Na / PL / RALB / TBIL / TC / TG / TP / gamma-GTP: tissue Plasma

CN(C)CCN(Cc1cccs1)c1ccccn1
TERMINAL_BW (3 h): 182 g
APTT (3 h): 21.9 s
Bas (3 h): 0%
Eos (3 h): 0.6%
Fbg (3 h): 308.2 mg/dL
Hb (3 h): 13 g/dL
Ht (3 h): 39.6%
Lym (3 h): 80.2%
MCH (3 h): 21.6 pg
MCHC (3 h): 32.8%
MCV (3 h): 65.9 fL
Mono (3 h): 2.2%
Neu (3 h): 15.8%
PT (3 h): 16.1 s
Plat (3 h): 115.9 x10_4/uL
RBC (3 h): 603 x10_4/ul
Ret (3 h): 7.3%
WBC (3 h): 81.5 x10_2/uL
KIDNEY_L (3 h): 0.8 g
KIDNEY_R (3 h): 0.9 g
KIDNEY_TOTAL (3 h): 1.7 g
LIVER (3 h): 8.3 g
A/G (3 h): 1.3
ALP (3 h): 1624.8 IU/L
ALT (3 h): 41.4 IU/L
AST (3 h): 73.6 IU/L
BUN (3 h): 13 mg/dL
CRE (3 h): 0.2 mg/dL
Ca (3 h): 10.5 mg/dL
Cl (3 h): 107.6 meq/L
DBIL (3 h): 0 mg/dL
GLC (3 h): 179 mg/dL
IP (3 h): 8.4 mg/dL
K (3 h): 4.4 meq/L
LDH (3 h): 201.8 IU/L
Na (3 h): 142.8 meq/L
PL (3 h): 140.4 mg/dL
RALB (3 h): 3 g/dL
TBIL (3 h): 0.016 mg/dL
TC (3 h): 75.4 mg/dL
TG (3 h): 53.4 mg/dL
TP (3 h): 5.4 g/dL
gamma-GTP (3 h): 1 IU/L
TERMINAL_BW (6 h): 186.2 g
APTT (6 h): 21.5 s
Bas (6 h): 0%
Eos (6 h): 0.6%
Fbg (6 h): 292.6 mg/dL
Hb (6 h): 12.6 g/dL
Ht (6 h): 38.7%
Lym (6 h): 74.6%
MCH (6 h): 21 pg
MCHC (6 h): 32.7%
MCV (6 h): 64 fL
Mono (6 h): 2%
Neu (6 h): 22%
PT (6 h): 16.9 s
Plat (6 h): 117.9 x10_4/uL
RBC (6 h): 604 x10_4/ul
Ret (6 h): 7.6%
WBC (6 h): 62.8 x10_2/uL
KIDNEY_L (6 h): 0.8 g
KIDNEY_R (6 h): 0.9 g
KIDNEY_TOTAL (6 h): 1.7 g
LIVER (6 h): 8 g
A/G (6 h): 1.2
ALP (6 h): 1536.2 IU/L
ALT (6 h): 34.2 IU/L
AST (6 h): 71.2 IU/L
BUN (6 h): 12.8 mg/dL
CRE (6 h): 0.1 mg/dL
Ca (6 h): 10.5 mg/dL
Cl (6 h): 106.2 meq/L
DBIL (6 h): 0 mg/dL
GLC (6 h): 173 mg/dL
IP (6 h): 9.2 mg/dL
K (6 h): 4.5 meq/L
LDH (6 h): 178 IU/L
Na (6 h): 141.6 meq/L
PL (6 h): 142.4 mg/dL
RALB (6 h): 2.8 g/dL
TBIL (6 h): 0.024 mg/dL
TC (6 h): 82.6 mg/dL
TG (6 h): 53 mg/dL
TP (6 h): 5.3 g/dL
gamma-GTP (6 h): 1 IU/L
TERMINAL_BW (9 h): 183.7 g
APTT (9 h): 20.6 s
Bas (9 h): 0%
Eos (9 h): 0.6%
Fbg (9 h): 290.8 mg/dL
Hb (9 h): 12.9 g/dL
Ht (9 h): 38.4%
Lym (9 h): 74%
MCH (9 h): 21.1 pg
MCHC (9 h): 33.5%
MCV (9 h): 63.1 fL
Mono (9 h): 2.2%
Neu (9 h): 22.2%
PT (9 h): 15.5 s
Plat (9 h): 124.7 x10_4/uL
RBC (9 h): 608.8 x10_4/ul
Ret (9 h): 7.7%
WBC (9 h): 66.5 x10_2/uL
KIDNEY_L (9 h): 0.8 g
KIDNEY_R (9 h): 0.8 g
KIDNEY_TOTAL (9 h): 1.7 g
LIVER (9 h): 7.5 g
A/G (9 h): 1.2
ALP (9 h): 1582.8 IU/L
ALT (9 h): 35.8 IU/L
AST (9 h): 69.8 IU/L
BUN (9 h): 11.2 mg/dL
CRE (9 h): 0.1 mg/dL
Ca (9 h): 10.3 mg/dL
Cl (9 h): 106.8 meq/L
DBIL (9 h): 0.002 mg/dL
GLC (9 h): 166.6 mg/dL
IP (9 h): 9.9 mg/dL
K (9 h): 4.5 meq/L
LDH (9 h): 205.6 IU/L
Na (9 h): 141.8 meq/L
PL (9 h): 131 mg/dL
RALB (9 h): 3 g/dL
TBIL (9 h): 0.022 mg/dL
TC (9 h): 77.4 mg/dL
TG (9 h): 42.2 mg/dL
TP (9 h): 5.5 g/dL
gamma-GTP (9 h): 1 IU/L
TERMINAL_BW (24 h): 198 g
APTT (24 h): 20 s
Bas (24 h): 0%
Eos (24 h): 0.8%
Fbg (24 h): 308 mg/dL
Hb (24 h): 12.9 g/dL
Ht (24 h): 38.8%
Lym (24 h): 84.4%
MCH (24 h): 20.6 pg
MCHC (24 h): 33.2%
MCV (24 h): 62.1 fL
Mono (24 h): 1.6%
Neu (24 h): 12.4%
PT (24 h): 16.8 s
Plat (24 h): 124 x10_4/uL
RBC (24 h): 625.6 x10_4/ul
Ret (24 h): 6.8%
WBC (24 h): 67.2 x10_2/uL
KIDNEY_L (24 h): 0.9 g
KIDNEY_R (24 h): 0.9 g
KIDNEY_TOTAL (24 h): 1.8 g
LIVER (24 h): 9.3 g
A/G (24 h): 1.2
ALP (24 h): 1883 IU/L
ALT (24 h): 46.4 IU/L
AST (24 h): 74.8 IU/L
BUN (24 h): 15.4 mg/dL
CRE (24 h): 0.2 mg/dL
Ca (24 h): 10.9 mg/dL
Cl (24 h): 106 meq/L
DBIL (24 h): 0.004 mg/dL
GLC (24 h): 179.8 mg/dL
IP (24 h): 7.3 mg/dL
K (24 h): 4.4 meq/L
LDH (24 h): 254.8 IU/L
Na (24 h): 142.4 meq/L
PL (24 h): 143.2 mg/dL
RALB (24 h): 3 g/dL
TBIL (24 h): 0.008 mg/dL
TC (24 h): 73.4 mg/dL
TG (24 h): 124.6 mg/dL
TP (24 h): 5.5 g/dL
gamma-GTP (24 h): 1.2 IU/L
